Assay results from PubChem BioAssay AID330 (DTP/NCI, 2004).
Inconclusive results and toxic doses are left out. Rule for the calls: active = survival T/C of 150% or more; inactive = T/C below 125% in these data.

Test system: P388 leukemia ip, CD2F1 mice, survival T/C
Experiment: NCI In Vivo Anticancer Drug Screen. Data for tumor model P388 Leukemia (intraperitoneal) in CD2F1 (CDF1) mice
Details: endpoint: median survival time, schedule: Q04DX002 (ip), vehicle: saline with Tween-80, higher = longer survival
Procedure, shortened: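 Mice carrying the transplanted tumor received test compound or vehicle. Survival was recorded in each group, and the value is the treated-group measurement divided by that of the vehicle-treated control group.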

Measured: T/C

CCC1(CC)SC(C)(C)N(C=O)C1C(=O)O (stereo not drawn)
inactive: dose: 100.0 mg/kg/injection 99 % of control | dose: 200.0 mg/kg/injection 104 % of control | dose: 400.0 mg/kg/injection 100 % of control
